Source: patent US8309596B2, “Kallikrein 7 modulators” (Novartis AG, priority 2007, dated 2012)
Marks after values point to notes of the source that are not given here.

Columns and labels:
Crl:NMRI mice = test: Anti-inflammatory activity in murine model of irritant contact dermatitis (ICD), TPA-induced; type: in vivo; conditions: for % Inhibition inflammatory swelling [Mean ± SEM values]: 10 μl topically 30 minutes prior to TPA challenge, auricular weight 6 hours after challenge, n 24
Procedure: Method: Crl:NMRI mice are challenged with 10 μl 0.005% phorbol 12-myristat-13-acetate (TPA) on the inner surface of the right ear. The unchallenged left ears serve as normal controls and dermatitis is evaluated from the difference in auricular weight (taken as a measure of inflammatory swelling) 6 hours after the challenge. The animals are treated topically with 10 μl of the test compound 1 or the solvent 30 minutes prior to the challenge. The efficacy of the treatment is calculated as the percentage inhibition of inflammatory auricular swelling relative to animals treated with the vehicle alone.

hairless SKH1 mice = test: Test on recovery of skin barrier disruption in mice (TEWL); type: in vivo; conditions: 10 mM
Procedure: Method: Skin barrier disruption is achieved in groups of hairless SKH1 mice with repeated stripping of the skin with S-Sqame® skin sampling disks. The procedure is completed when transepidermal water loss (TEWL) achieved ≧[…]. TEWL is assessed with a Tewameter TM210 (Courage Khazaka, Cologne, Del.). Immediately after barrier disruption 30 μl of the compound of example 37(=Test compound 1) is applied at 10 mM concentration. Controls animals are treated similarly with the solvent (EtOH/propylene glycol, 3/7 (v/v)) alone. TEWL is measured before, immediately after, and at 3 hrs after barrier disruption. In each animal, the percentage recovery is calculated using the formula: (1−[TEWL at 3 hrs−base line TEWL]/[TEWL immediately after stripping−base line TEWL])×100%.

swine = test: Anti-inflammatory activity in swine model of allergic contact dermatitis (ACD), DNFB; type: in vivo
Procedure: Eight days before the elicitation of the ACD, […] of 10% 2,4-dinitrofluorobenzene (DNFB, dissolved in DMSO/acetone/olive oil [1/5/3, v/v/v]) are applied epicutaneously in divided volumes onto the basis of both ears and onto both groins (100 μl/site) for sensitization. The challenge reactions are elicited with 15 μl of DNFB (1.0%) on contralateral test sites (each 7 cm^2 in size) of the shaved dorsolateral back. For treatment, the compound of example 11 (=Test compound 2) and the placebo (solvent only) are applied contralaterally to 2 test sites in each animal 0.5 and 6 hours after the challenge. The test sites are clinically examined 24 hours after the challenge when inflammation peaks. The changes are scored on a scale from 0 to 4 (Table XY), allowing a combined maximal score of 12 per designated site. Skin reddening is measured reflectometrically using a* values (see Table 3)

Kallikrein-7 = Kallikrein-7 (Homo sapiens, UniProt P49862); test: Kallikrein-7 inhibition, fluorescence-quenched substrate, determination of IC50 values; type: biochemical; conditions: pH 5.6, 1 hour preincubation, 0.2 nM protease, 2 μM substrate, room temperature
Chain of Kallikrein-7 (P49862 30-253): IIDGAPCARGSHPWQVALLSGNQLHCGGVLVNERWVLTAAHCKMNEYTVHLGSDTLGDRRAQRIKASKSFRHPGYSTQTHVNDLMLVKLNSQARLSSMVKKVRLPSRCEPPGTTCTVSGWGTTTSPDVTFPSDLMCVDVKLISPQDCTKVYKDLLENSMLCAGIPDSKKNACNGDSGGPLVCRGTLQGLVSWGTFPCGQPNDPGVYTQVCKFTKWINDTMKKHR
Procedure: The fluorescence-quenched substrate Ac-Glu-Asp(EDANS)-Lys-Pro-Ile-Leu-Phe^Arg-Leu-Gly-Lys(DABCYL)-Glu-NH2 (where ^ indicates the scissile bond, identified by MS analysis) is purchased from Biosyntan (Berlin, Germany) and kept as a 5 mM stock solution in DMSO at −20° C. All other chemicals are of analytical grade.
Enzymatic reactions are conducted in 50 mM sodium citrate buffer at pH 5.6 containing 150 mM NaCl and 0.05% (w/v) CHAPS.
All protein and peptide containing solutions are handled in siliconized tubes (Life Systems Design, Merenschwand, Switzerland). […]
For fluorescence intensity (FI) measurements an Ultra Evolution reader (TECAN, Maennedorf, Switzerland) is used. The instrument is equipped with a combination of a 350 nm (20 nm bandwidth) and a 500 nm (25 nm bandwidth) bandpath filter for fluorescence excitation and emission acquisition, respectively. […]
For the determination of IC50 values the assay is performed at room temperature in 384-well plates. […] The protease concentration in final assay solution is 0.2 nM (according to the enzyme concentrations determined by the Bradford method). […] The effect of the compound on the enzymatic activity is obtained from the linear progress curves and determined from two readings, the first one taken directly after the addition of substrate and the second one after 1 hour. […]

How did the “% Inhibition inflammatory swelling [Mean ± SEM values]” value (Crl:NMRI mice; 10 mM) turn out when `COc1ccc(CCNC(=O)[C@@H]2[C@H]3C[C@H]3CN2C(=O)NCc2cccc3ccc(Cl)cc23)cc1` [Example 37, (1S,2S,5R)-3-aza-bicycic[3.1.0]hexane-2,3-dicarboxylic acid 3-[(7-chloro-naphthalen-1-ylmethyl)-amide] 2-{[2-(4-methoxy-phenyl)-ethyl]-amide}] was run?
The value was 41 ± 5.3***^24%.

What about the “inhibition of inflammatory swelling” value (Crl:NMRI mice; 20 mM concentrations as printed in text) of the same compound?
Its value is 54-73%.

What about the “% Inhibition inflammatory swelling [Mean ± SEM values]” value (Crl:NMRI mice; 30 mM) of the same compound?
Its value is 73 ± 7.0***^24%.

What about the “% Recovery in barrier disruption Mean (SD values)” value (hairless SKH1 mice; 30 μl applied immediately after barrier disruption, TEWL at 3 hrs, n: 8 or 12 animals per group) of the same compound?
Its value is 76 (3.3)*** %.

And the “acceleration of barrier repair compared to repair in mice treated with the solvent alone” value (hairless SKH1 mice; single application, p<0.001)?
Its value is 65-76%.

Which results are given for `C#Cc1ccc2cccc(CNC(=O)N3CCC[C@H]3C(=O)NCc3cccnc3)c2c1` [Example 11, (S)-Pyrrolidine-1,2-dicarboxylic acid 1-[(7-ethynyl-naphthalen-1-ylmethyl)-amide] 2-[(pyridin-3-ylmethyl)-amide]]?
A* value (Mean, SD, n: 8), skin reddening measured reflectometrically (swine; 1% solution applied 0.5 and 6 hours after challenge, 24 hours after challenge): 7.7 (1.6); Clinical score (Mean, SD, n: 8) (swine; 1% solution applied 0.5 and 6 hours after challenge, examined 24 hours after challenge, maximal score 12): 4.1 (1.3); Inhibition vs placebo-treated sites, Clinical score (swine; 1% solution, Mean, SD): 42.4 (11.1); inhibition of clinical inflammatory changes (swine; 1% solution, p<0.01): 42%

For `O=C(NCc1cccnc1)[C@@H]1[C@H]2C[C@H]2CN1C(=O)NCc1cccc2ccc(Cl)cc12` [Example 36, (1S,2S,5R)-3-aza-bicyclo[3.1.0]hexane-2,3-dicarboxylic acid 3-[(7-chloro-naphthalen-1-ylmethyl)-amide] 2-[(pyridin-3-ylmethyl)-amide]], which IC50 (Kallikrein-7) is on record?
The IC50 was 3 nM.
